In patent US9549912B2, “Methods for treating atrial fibrillation” (Armetheon, Inc., priority 2009, dated 2017):

Legend:
[1] = tested on: patients with paroxysmal atrial fibrillation (PAF); assay: Randomized, double-blind, placebo-controlled study of budiodarone in PAF patients with pacemakers: AT/AF burden, episodes, NSR, GCI (Example 2); assay type: in vivo, human
Text: The objective of the study is to determine the efficacy of budiodarone in reducing atrial tachyarrhythmia (AT/AF) burden in patients with paroxysmal atrial fibrillation (PAF) compared to placebo, for 12 weeks of treatment, and the safety and tolerability of budiodarone for up to 12 weeks of treatment.
Secondary: to study the effect of budiodarone versus placebo on the number and duration of AT/AF episodes, duration of normal sinus rhythm (NSR) between episodes of AT/AF and on symptoms associated with PAF.
Example 2 describes a multicenter, multinational, randomized, double-blind, placebo-controlled, parallel-group study of the efficacy and safety of budiodarone in patients with PAF. Planned enrollment was up to 140 patients (with eventually 110 enrolled) with proven PAF who had permanently implanted pacemakers with appropriate AT/AF diagnostic and recording capabilities. Potential study participants underwent screening assessments, including the optimization of pacemaker programming for accurate AT/AF detection. Within 30 days after screening assessments began, eligible patients entered a 4-week baseline period (Period 1) when baseline atrial fibrillation burden (AFB) was established followed by randomization to one of three active treatment regimens or placebo for a 12-week treatment period (Period 2), followed by a 4-week washout period (Period 3). During the treatment period, patients received twice-daily (BID) oral doses of 200 mg ATI-2042, 400 mg ATI-2042, 600 mg ATI-2042, or placebo. No study drug was given during the baseline and washout periods.
To be randomized, study participant must have had: an AT/AF burden between 5% and 70% during the baseline period; no evidence of persistent AF (i.e., 7 or more consecutive days of AT/AF with episodes lasting >23 hours); able to have pacemaker atrial antitachyarrhythmia treatment algorithms turned off for the remaining duration of the study.
Efficacy outcome measures were AT/AF burden (total time spent in AT/AF as a percentage of total observation time), number and mean duration of AT/AF episodes, mean duration of NSR, patient global clinical impression (GCI) questionnaire, and University of Toronto Atrial Fibrillation Severity Scale (AFSS).
Statistical methods for efficacy: The primary efficacy analysis was the percent change in the AT/AF burden from baseline to the 12-week treatment period. Pairwise comparisons between each ATI-2042 dose group and the placebo group were performed using the Wilcoxon rank sum test. The primary analysis was based on the mITT population.
For all variables based on the pacemaker data, the Wilcoxon rank sum test was used to compare each ATI-2042 dose group to the placebo group. The Jonckheere-Terpstra test was used to test for a dose response. The Wilcoxon signed rank test was used to test for a significant change from baseline within each treatment group. An analysis of covariance (ANCOVA) was used to compare the percent change from baseline in AT/AF burden among the treatment groups after adjusting for the baseline AT/AF burden. The ANCOVA model contained effects for treatment group and baseline AT/AF burden.
For patient […], the Cochran-Mantel-Haenszel test was used to compare each ATI-2042 dose group to the placebo group. The Jonckheere-Terpstra test was used to test for a dose response.

[2] = tested on: sodium, potassium, and calcium ion channels; assay: Electrophysiological activity in animals: ion channel inhibition
[3] = Trough plasma concentrations of ATI-2042 and metabolites (Example 1); assay type: in vivo, human
Experimental: Patients were enrolled within 8 weeks of screening. During the study, they were reviewed on days 1, 2, and 8 of each study period. ATI-2042 was increased on day 1 of each 2-week study period, following routine bloods for haematology, biochemistry, and coagulation screens. Plasma samples for pharmacokinetic analysis of ATI-2042 and its metabolites were taken at steady state at the end of each study period just prior to the first escalated dose of the subsequent period and within 15 min prior to the pre-dose ECG for that dose.
Trough concentrations of ATI-2042 and its metabolites (ATI-2000, ATI-2100, and ATI-2142), measured at pre-dose on day 1 of each of the four treatment periods and on days 1 and 8 of the washout period, were summarized by time point. Spearman's rank correlation was used to examine the relationship between trough concentrations of ATI-2042 and AFB.

[4] = 600 mg BID, Treatment Months 1-3, ITT
[5] = 600 mg BID, Treatment Months 1-3, mITT

(S)-sec-butyl 2-(3-(4-(2-(diethylamino)ethoxy)-3,5-diiodobenzoyl)benzofuran-2-yl)acetate [ATI-2042]
decrease in AFB ([1]; 200 mg BID, mITT population, not statistically significant): 10%
median percent reduction from baseline in AT/AF burden ([1]; 400 mg BID, Treatment Months 1-3, ITT population): 54%
median percent reduction from baseline in AT/AF burden ([1]; 400 mg BID, Treatment Months 1-3, mITT population): 54%
AF episodes lasting 24 hours (FIG. 6) ([1]; 400 mg dose cohort): only a single 24 hour episode
patients with AF eradicated during the study period ([1]; 600 mg): More than half the patients had their AF eradicated
reduction of number and duration of AF episodes below baseline (FIG. 3) ([1]; 600 mg): about 70%
median percent reduction in AT/AF burden ([1]; 600 mg BID, Treatment Month 3, ITT population): 80%
median percent reduction in AT/AF burden ([1]; 600 mg BID, Treatment Month 3, mITT population): 83%
median percent change from baseline in duration of AT/AF episodes [1, 4]: −51.3%
median percent change from baseline in number of AT/AF episodes [1, 4]: −52.9%
median percent increase from baseline in duration of NSR [1, 4]: 208.8%
median percent reduction from baseline in AT/AF burden ([1]; 600 mg BID, Treatment Months 1-3, ITT population): 74%
median percent change from baseline in duration of AT/AF episodes [1, 5]: −51.3%
median percent change from baseline in number of AT/AF episodes [1, 5]: −62.1%
median percent increase from baseline in duration of NSR [1, 5]: 241.8%
median percent reduction from baseline in AT/AF burden ([1]; 600 mg BID, Treatment Months 1-3, mITT population): 75%
median percentage reduction in AFB ([1]; 600 mg BID, third month, paragraph refers to ITT population): 83%
AF episodes lasting 24 or more hours (FIG. 6) ([1]; 600 mg dose group): no patients experienced an AF episode lasting 24 or more hours
decrease in number of AT/AF episodes (median percent change from baseline, FIG. 3) ([1]; 600 mg, all three treatment months): more than 60%
median AF episode duration ([1]; 600 mg, month 3): 0
decrease in duration of episodes (median percent change from baseline, FIG. 3) ([1]; 600 mg, treatment month 1): more than 50%
decrease in duration of episodes (median percent change from baseline, FIG. 3) ([1]; 600 mg, treatment month 2): more than 70%
decrease in duration of episodes (median percent change from baseline, FIG. 3) ([1]; 600 mg, treatment month 3): ~70%
mean episode duration (FIG. 4) ([1]; 600 mg, down from nearly 24): less than 1 hour
Patient GCI: patients a lot or completely satisfied with the test medication ([1]; ITT population, dose group not stated): 60.0%
Patient GCI: patients reporting a lot of improvement or complete relief ([1]; dose group not stated, ITT and mITT both named): 46.7%
AFB after one-month washout ([1]; each of the three dose groups): returned to essentially the baseline values
inhibition of sodium, potassium, and calcium ion channels [2]: inhibition comparable with amiodarone
mean trough level of ATI-2042 ([3]; 200 mg bid, steady state): 2.4 ± 0.9 ng/mL
mean trough level of ATI-2042 ([3]; 400 mg bid): 5.2 ± 1.7 ng/mL
mean trough level of ATI-2042 ([3]; 600 mg bid): 13.1 ± 5.6 ng/mL
mean trough level of ATI-2042 ([3]; 800 mg bid): 19.8 ± 17.9 ng/mL
trough level of ATI-2042 ([3]; washout): 0.3+0.4 ng/mL
